Test results from patent US5474984A, “Horseshoe crab amebocyte lysate factor G activation inhibitor” (priority 1988, dated 1995).

Columns and labels:
factor G fraction of LAL = molecular target: T1, factor G fraction of LAL (Tachypleus tridentatus, UniProt Q27082); experiment: Method of measuring the titer of the activity of a factor G activation inhibitor (GI); format: biochemical, T. tridentatus; settings: 10 pg factor G activating substance (sample No. 106), 37° C. 30 minutes; 100% inhibition = 100 units
T1 construct: Prepared from horseshoe crab, T. tridentatus; from tissue; host or cells: horseshoe crab amebocyte lysate (LAL), factor G fraction
T1 sequence (Q27082 20-673): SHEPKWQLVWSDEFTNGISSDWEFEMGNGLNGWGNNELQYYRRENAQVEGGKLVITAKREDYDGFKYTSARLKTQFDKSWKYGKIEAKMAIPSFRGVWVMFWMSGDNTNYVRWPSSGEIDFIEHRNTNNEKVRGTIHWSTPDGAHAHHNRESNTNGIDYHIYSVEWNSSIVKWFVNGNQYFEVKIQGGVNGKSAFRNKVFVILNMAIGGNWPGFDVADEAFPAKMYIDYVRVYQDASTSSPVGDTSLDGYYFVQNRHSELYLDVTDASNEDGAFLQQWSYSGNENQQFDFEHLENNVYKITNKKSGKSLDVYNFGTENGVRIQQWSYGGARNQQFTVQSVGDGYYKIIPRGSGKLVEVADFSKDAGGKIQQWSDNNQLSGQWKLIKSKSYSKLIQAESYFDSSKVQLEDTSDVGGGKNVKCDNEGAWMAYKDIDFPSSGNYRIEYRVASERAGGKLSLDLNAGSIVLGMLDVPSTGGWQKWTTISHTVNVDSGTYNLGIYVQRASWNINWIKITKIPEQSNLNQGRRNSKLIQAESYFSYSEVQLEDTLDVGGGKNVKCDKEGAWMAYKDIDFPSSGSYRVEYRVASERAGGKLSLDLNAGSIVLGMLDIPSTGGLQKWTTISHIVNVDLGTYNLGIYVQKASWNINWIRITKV
T1 sequence (Q27083 32-309 partner): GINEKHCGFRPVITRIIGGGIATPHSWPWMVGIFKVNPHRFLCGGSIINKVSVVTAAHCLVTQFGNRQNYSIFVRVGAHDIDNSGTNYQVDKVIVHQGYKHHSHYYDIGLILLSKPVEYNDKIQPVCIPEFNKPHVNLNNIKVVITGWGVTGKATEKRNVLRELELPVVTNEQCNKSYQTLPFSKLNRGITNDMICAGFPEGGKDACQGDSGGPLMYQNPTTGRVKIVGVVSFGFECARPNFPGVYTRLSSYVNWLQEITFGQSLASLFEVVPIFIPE
Description: The factor G activation inhibiting titer was measured by the "method of measuring the titer of the activity of a factor G activation inhibitor" described below and expressed in units/mg.
Method of measuring the titer of the activity of a factor G activation inhibitor (sometimes abbreviated as GI):
Two hundred microliters of the reaction mixture contained the following materials. […]
The above reaction mixture was incubated at 37° C. for 30 minutes, and 0.5 ml each of 0.04% sodium nitrite (0.48M HCl solution), 0.3% ammonium sulfamate, and 0.07% N-(1-naphthyl)ethylenediamine dihydrochloride were successively added, and its color was changed by diazo coupling. The amount of pNA liberated was measured as the absorbance at 545 nm (A545).
The GI activity was calculated from the following equation. [formula]
The amount of GI which inhibited activation of factor G by GA under these conditions to an extent of 100% is defined as 100 units.
A sample which is water-insoluble is used after it is dissolved in 0.3M NaOH, and neutralized with an equal volume of 0.3M HCl.
A GPC fractionated pure sample of the sonicated product of Curdlan which was prepared in Preparation Example 5 (Table 2, sample No. 106 having a molecular weight of 216,000).
Prepared from horseshoe crab, T. tridentatus, inhabiting the coast of Japan in accordance with the method described in T. Obayashi et al., Clin. Chim. Acta, 149, 55-65 (1985).

factor G [1] = molecular target: T2, factor G (Tachypleus tridentatus, UniProt Q27082); experiment: Operating mechanism experiment: inhibition of the factor G pathway with varied sequence of addition; format: biochemical, horseshoe crab; settings: 5 micrograms inhibitor
T2 construct: prepared from LAL by the method described in T. Obayashi et al; from tissue; host or cells: horseshoe crab amebocyte lysate (LAL), factor G fraction
T2 sequence (Q27082 20-673): T1 sequence (Q27082 20-673)
T2 sequence (Q27083 32-309 partner): T1 sequence (Q27083 32-309 partner)
Description: (§1) A reaction mixture of the following composition was used. Two hundred microliters of the reaction mixture contained 5 micrograms of a factor G activation inhibitor (laminariheptaose; sample No. 10; abbreviated as I), 3 pg of a factor G activating substance (GPC fraction of sonicated Curdlan; sample No. 106; abbreviated as A), 20 microliters of a factor G fraction (abbreviated as G) and 30 microliters of a proclotting enzyme fraction (abbreviated as P) prepared from LAL by the method described in T. Obayashi et al., Clin. Chim. Acta, 149, 55-65 (1985), 20 μmoles of Tris-HCl buffer (pH 8.0), 20 μmoles of MgCl2 and 0.13 μmole of a chromogenic substrate Boc-Leu-Gly-Arg-pNA (abbreviated as S).
(§2) In each of Runs 1 to 5, the sequence of adding the ingredients and the incubating conditions were varied, and the degree of inhibition of the factor G pathway was measured and determined in comparison with a control in which no inhibitor was added.

factor G [2] = experiment: as above; format: biochemical, horseshoe crab; settings: factor G activated by A before inhibitor
Description: as §1, §2

Factor G activation inhibiting titer (factor G fraction of LAL)	Structure (SMILES)	also measured
103,000 units/mg	OCC1OC(OC2C(O)C(CO)OC(OC3C(O)C(CO)OC(OC4C(O)C(CO)OC(OC5C(O)C(CO)OC(OC6C(O)C(CO)OC(OC7C(O)C(O)OC(CO)C7O)C6O)C5O)C4O)C3O)C2O)C(O)C(O)C1O (stereo not drawn) [compound 10, Laminariheptaose]	Inhibition rate (%) to the control (factor G [1]; Run 1 (sequence of addition drawing 11), 3 pg activating substance sample No. 106): 100%; Inhibition rate (%) to the control (factor G [1]; Run 2 (sequence drawing 12), 3 pg activating substance): 100%; Inhibition rate (%) to the control (factor G [1]; Run 3 (sequence drawing 13), 3 pg activating substance): 100%; Inhibition rate (%) to the control (factor G [2]; Run 4 (sequence drawing 14)): 1.7%; Inhibition rate (%) to the control (factor G [2]; Run 5 (sequence drawing 15)): 0%
55,000 units/mg	OC[C@H]1O[C@@H](O[C@@H]2[C@@H](O)[C@H](O[C@@H]3[C@@H](O)[C@H](O[C@@H]4[C@@H](O)[C@H](O[C@@H]5[C@@H](O)[C@H](O[C@H]6[C@H](O)[C@@H](CO)OC(O)[C@@H]6O)O[C@H](CO)[C@H]5O)O[C@H](CO)[C@H]4O)O[C@H](CO)[C@H]3O)O[C@H](CO)[C@H]2O)[C@H](O)[C@@H](O)[C@@H]1O (stereo partly drawn) [compound 9, Laminarihexaose]	
4,670 units/mg	OC[C@H]1O[C@@H](O[C@@H]2[C@@H](O)[C@H](O[C@H]3[C@H](O)[C@@H](CO)OC(O)[C@@H]3O)O[C@H](CO)[C@H]2O)[C@H](O)[C@@H](O)[C@@H]1O (stereo partly drawn) [compound 6, Laminaritriose]	
20,000 units/mg	OC[C@H]1O[C@@H](O[C@@H]2[C@@H](O)[C@H](O[C@@H]3[C@@H](O)[C@H](O[C@H]4[C@H](O)[C@@H](CO)OC(O)[C@@H]4O)O[C@H](CO)[C@H]3O)O[C@H](CO)[C@H]2O)[C@H](O)[C@@H](O)[C@@H]1O (stereo partly drawn) [compound 7, Laminaritetraose]	
214 units/mg	OC[C@H]1O[C@@H](O[C@H]2[C@H](O)[C@@H](CO)OC(O)[C@@H]2O)[C@H](O)[C@@H](O)[C@@H]1O (stereo partly drawn) [compound 5, Laminasiribose]	
39,800 units/mg	OC[C@H]1O[C@@H](O[C@@H]2[C@@H](O)[C@H](O[C@@H]3[C@@H](O)[C@H](O[C@@H]4[C@@H](O)[C@H](O[C@H]5[C@H](O)[C@@H](CO)OC(O)[C@@H]5O)O[C@H](CO)[C@H]4O)O[C@H](CO)[C@H]3O)O[C@H](CO)[C@H]2O)[C@H](O)[C@@H](O)[C@@H]1O (stereo partly drawn) [compound 8, Laminaripentaose]	

Structure (SMILES)	Factor G activation inhibiting titer (factor G fraction of LAL)	also measured
OC[C@H]1OC(O)[C@H](O)[C@@H](O)[C@@H]1O (stereo partly drawn) [compound 108, Glucose, reference compound]	< 100 units/mg	
